According to paper PMC11592078, “Synthesis, Analytical Characterization, and Human CB1 Receptor Binding Studies of the Chloroindole Analogues of the Synthetic Cannabinoid MDMB-CHMICA” (Biomolecules, 2024):
Read-outs that look alike come from different tables or passages of the source.

Experiments:
hCB1 receptor [1] = biological target: T1, hCB1 receptor (Homo sapiens, UniProt P21554); assay: competitive ligand binding assay with [3H]-CP-55,940 on hCB1 membrane preparations of HEK293-EBNA cells
T1 construct: purchased Perkin Elmer; host or cells: HEK293-EBNA
T1 sequence (P21554 whole entry): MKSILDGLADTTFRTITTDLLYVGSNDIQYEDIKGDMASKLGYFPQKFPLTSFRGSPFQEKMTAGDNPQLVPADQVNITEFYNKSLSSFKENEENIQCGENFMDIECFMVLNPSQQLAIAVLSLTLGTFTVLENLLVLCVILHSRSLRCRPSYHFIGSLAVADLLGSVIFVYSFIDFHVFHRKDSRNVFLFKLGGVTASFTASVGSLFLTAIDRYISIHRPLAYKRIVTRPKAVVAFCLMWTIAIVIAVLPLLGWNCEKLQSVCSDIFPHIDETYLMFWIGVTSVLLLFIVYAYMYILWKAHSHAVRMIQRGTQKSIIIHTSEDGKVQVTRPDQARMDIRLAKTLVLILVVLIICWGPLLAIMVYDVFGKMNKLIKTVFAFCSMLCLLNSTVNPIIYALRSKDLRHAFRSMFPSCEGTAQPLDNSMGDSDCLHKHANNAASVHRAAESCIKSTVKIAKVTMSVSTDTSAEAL

hCB1 receptor [2] = biological target: T1, hCB1 receptor; design: method as in earlier work; conditions: read-out: Ki at hCB1; comparable assay setup; ref 31 (Schoeder et al.); cited from earlier work

Compound | IC50 (hCB1 receptor [1]) [nM] | Ki (hCB1 receptor [1]) [nM] | rank of Ki among the chloro analogues (hCB1 receptor [1]; comparison of the substitution positions) | Ki (hCB1 receptor [2]) [nM]
COC(=O)[C@@H](NC(=O)c1cn(CC2CCCCC2)c2ccc(Cl)cc12)C(C)(C)C [5-Chloro-MDMB-CHMICA, Methyl (S)-2-(5-chloro-1-(cyclohexylmethyl)-1H-indole3-carboxamido)-3,3-dimethylbutanoate] | 402 | 9.81 | – | –
COC(=O)[C@@H](NC(=O)c1c(Cl)n(CC2CCCCC2)c2ccccc12)C(C)(C)C [2-Chloro-MDMB-CHMICA, Methyl (S)-2-(2-chloro-1-(cyclohexylmethyl)-1H-indole-3-carboxamido)-3,3-dimethylbutanoate] | 23.6 | 0.58 | lowest Ki value | –
CCCCCn1cc(C(=O)c2cccc3ccccc23)c2ccccc21 [JWH-018, naphthalen-1-yl(1-pentyl-1H-indol-3-yl)methanone, reference compound] | 103 | 2.69 | – | –
COC(=O)[C@@H](NC(=O)c1cn(CC2CCCCC2)c2cccc(Cl)c12)C(C)(C)C [4-Chloro-MDMB-CHMICA, Methyl (S)-2-(4-chloro-1-(cyclohexylmethyl)-1H-indole-3-carboxamido)-3,3-dimethylbutanoate] | 268 | 6.55 | – | –
COC(=O)[C@@H](NC(=O)c1cn(CC2CCCCC2)c2c(Cl)cccc12)C(C)(C)C [7-Chloro-MDMB-CHMICA, Methyl (S)-2-(7-chloro-1-(cyclohexylmethyl)-1H-indole-3-carboxamido)-3,3-dimethylbutanoate] | 28.8 | 0.7 | – | –
COC(=O)[C@@H](NC(=O)c1cn(CC2CCCCC2)c2cc(Cl)ccc12)C(C)(C)C [6-Chloro-MDMB-CHMICA, Methyl (S)-2-(6-chloro-1-(cyclohexylmethyl)-1H-indole-3-carboxamido)-3,3-dimethylbutanoate] | 31.6 | 0.77 | – | –
COC(=O)C(NC(=O)c1cn(CC2CCCCC2)c2ccccc12)C(C)(C)C (stereo not drawn) [MDMB-CHMICA, Methyl 2-[[1-(cyclohexylmethyl)-1H-indole-3-carbonyl]amino]-3,3-dimethylbutanoate] | – | 0.951 | – | 0.41 ± 0.141
